{"source": "paper PMC6158767", "about": "“Vistusertib (dual m-TORC1/2 inhibitor) in combination with paclitaxel in patients with high-grade serous ovarian and squamous non-small-cell lung cancer” (Annals of Oncology, 2018)", "key": {"[1]": {"test_system": "Ser^473 p-AKT in platelet-rich plasma", "assay": "Phosphorylation of AKT (Ser473) in platelet-rich plasma, MSD electrochemiluminescent immunoassay", "type": "in vivo, human", "procedure": "Figure 1. Pharmacodynamic profile of vistusertib at 50 mg bd 3/7. Phosphorylation of AKT (Ser473) in platelet-rich plasma was quantified using MSD electrochemiluminescent immunoassays and normalised to corresponding total AKT values. Baseline values were established prior to the start of treatment. On C1D1, only paclitaxel (80 mg/m^2) was administered and a non-significant rise in p-ATK at 4 h following treatment was noted. […] On C1D8, the combination of paclitaxel and vistusertib was administered, which caused a significant reduction of p-AKT compared with baseline. Points represent individual patients, orange line represents mean of up to N = 6 patients. Four samples were excluded because of haemolysis, which interfered with the assay (*P<0.05; paired t-test).\npAkt was assessed in platelet rich plasma (PRP) using a sandwich immunoassay as per manufacturer’s instructions (K11100D, Meso Scale Discovery, Maryland, USA) which consisted of a multiplex assay with plates pre-coated with phospho(Ser473) Akt and total Akt capture antibodies. These plates were blocked for 1 hour, incubated with sample for 1 hour, and finally incubated with an anti-total Akt detection antibody conjugated to MSD-SULFO-TAG for 1 hour before being detected on a Meso Scale Discovery Sector Imager 6000 using electrochemiluminescence in order to determine the percentage of Akt phosphorylated. During validation the inter-assay precision ranged from 6.75 to 7.17%."}, "[2]": {"assay": "Pharmacokinetic sampling (plasma, LC-MS/MS) in the dose-escalation arm", "details": "paclitaxel with vistusertib", "method": "(§3) This method is applicable to the analysis of AZD2014 in human plasma treated with K2EDTA anticoagulant. AZD2014 and the internal standard (ISTD), 13C22H2AZ12729279 are extracted from human plasma by solid-phase extraction (SPE). After evaporation under nitrogen, the residue is reconstituted and analysed using liquid chromatography (LC) with tandem mass spectrometric detection (MS/MS). The standard curve range is from 20.0 to 20,000 ng/mL for AZD2014, using a plasma sample volume of 0.0250 mL."}, "[3]": {"test_system": "patients with advanced solid tumours", "assay": "Toxicity (NCI-CTCAE V4.0), DLT and MTD in the dose-escalation cohort, vistusertib with weekly paclitaxel 80 mg/m^2", "procedure": "The dose of paclitaxel administered was 80 mg/m^2 once weekly for 6/7 weeks in a 7-week cycle. In the first week of the dose-escalation cohorts, patients received only paclitaxel on C1D1, then vistusertib on C1D3 to allow for PK and PD samplings. Patients then received weekly paclitaxel (on days 8, 15, 22, 29, and 36) with vistusertib, also starting on days 8, 15, 22, 29, and 36, given orally twice daily either for three consecutive days per week (schedule A: 3/7 days, 6/7 weeks) or two consecutive days per week (schedule B: 2/7 days, 6/7 weeks). In the dose expansion, schedule A was taken forward with patients dosing with vistusertib weekly on days 1–3 for 6 weeks of a 7-week cycle."}, "[4]": {"test_system": "high-grade serous ovarian cancer (HGSOC)", "assay": "Ovarian cancer expansion: RECIST v1.1 / GCIG CA125 response and progression-free survival", "type": "in vivo, human", "procedure": "(§1) RECIST v1.1 was used to assess tumour response supported by GCIG CA125 response in patients with HGSOC. Response was assessed at the end of every 7-week cycle.\n(§2) Progression-free survival was estimated by the Kaplan–Meier method, beginning on the day of the first dose (C1D1) and continuing until disease progression. Patients who came off study for reasons other than disease progression (clinical or RECIST) were censored. This study is registered with ClinicalTrials.gov, identifier: NCT02193633.\nTwenty-seven patients with relapsed/refractory HGSOC were treated at the RP2D. Two patients were replaced as per protocol and were not considered for assessment of response. The median number of previous treatments was three: the majority (26/27; 96%) of patients having received paclitaxel and 3/27 patients (11%) having previously received weekly paclitaxel (supplementary Table S2, available at Annals of Oncology online). The RECIST and CA125 response rates were 13/25 (52%) and 16/25 (64%), respectively (Figure 2A). The mPFS was 5·8 months (95% CI: 3.3–18.5)."}, "[5]": {"test_system": "squamous non-small-cell lung cancer (sqNSCLC)", "assay": "Squamous lung cancer expansion: RECIST v1.1 response and progression-free survival", "type": "in vivo, human", "procedure": "as §1, §2"}, "patients with sqNSCLC": {"test_system": "patients with sqNSCLC", "assay": "Toxicity (NCI-CTCAE V4.0) in the squamous non-small cell lung cancer expansion cohort", "procedure": "Patients administered with 80 mg/m^2 paclitaxel with 50 mg vistusertib bd 3/7 days for 6/7 weeks, dosing starting concurrently on day 1 of each week\nPatients administered with 80 mg/m^2 paclitaxel with 25 mg vistusertib bd 3/7 days for 6/7 weeks, dosing starting concurrently on day 1 of each week treated at paclitaxel 80 mg/m^2/week and vistusertib 25 mg bd 3/7."}, "sqNSCLC": {"test_system": "sqNSCLC", "assay": "RECIST response in the dose-escalation cohort", "type": "in vivo, human", "details": "vistusertib + weekly paclitaxel", "procedure": "as §1"}, "[6]": {"details": "in vivo", "method": "as §3"}, "[7]": {"set-up": "method as in PMID 23375793, PMID 25805799", "details": "cited from earlier work"}, "ovarian cancer models": {"test_system": "ovarian cancer models", "set-up": "method as in PMID 29371953", "details": "in vitro and in vivo; cited from earlier work"}, "clinical": {"assay": "clinical", "details": "human, in vivo, geometric mean; for AUC(0-t): AUClast of vistusertib; for Cmax: Cmax of vistusertib; for half-life: HL Lambda_z (half-life) of vistusertib", "method": "as §3"}, "patients": {"test_system": "patients", "assay": "Toxicity (NCI-CTCAE V4.0), whole study: hyperglycaemia incidence", "details": "vistusertib + weekly paclitaxel"}, "[8]": {"details": "HGSOC expansion, 50 mg vistusertib bd 3/7 days + paclitaxel 80 mg/m^2"}, "[9]": {"details": "HGSOC expansion, 50 mg vistusertib bd 3/7 days + paclitaxel 80 mg/m^2, 25 patients"}, "[10]": {"details": "sqNSCLC expansion, 25 mg cohort"}, "[11]": {"details": "sqNSCLC expansion, 25 mg vistusertib bd 3/7 days + paclitaxel 80 mg/m^2"}, "[12]": {"details": "Lung Expansion 25 mg + paclitaxel (N=24), all grades"}, "[13]": {"details": "Lung Expansion 50 mg + paclitaxel (N=17), all grades"}}, "note": "Read-outs that look alike come from different tables or passages of the source.", "data": [{"smiles": "CC(=O)O[C@H]1C(=O)[C@@]2(C)[C@H]([C@H](OC(=O)c3ccccc3)[C@]3(O)C[C@H](OC(=O)[C@H](O)[C@@H](NC(=O)c4ccccc4)c4ccccc4)C(C)=C1C3(C)C)[C@]1(OC(C)=O)CO[C@@H]1C[C@@H]2O", "note": "[paclitaxel]", "values": [{"measurement": "Increase in Ser^473 p-AKT levels in PRP", "setting": "[1]; 4 h following 80 mg/m^2 paclitaxel alone (C1D1), P = 0.14, statistically non-significant", "value": 1.4, "unit": "fold"}, {"measurement": "Drug-drug PK interaction on drug exposure, combination versus either agent alone", "setting": "[2]", "value": "no drug-drug PK interaction"}]}, {"smiles": "CNC(=O)c1cccc(-c2ccc3c(N4CCOC[C@@H]4C)nc(N4CCOC[C@@H]4C)nc3n2)c1", "note": "[vistusertib]", "values": [{"measurement": "Recommended phase II dose (RP2D) of vistusertib", "setting": "[3]; bd 3/7 days for 6/7 weeks, with 80 mg/m^2 weekly paclitaxel", "value": 50, "unit": "mg"}, {"measurement": "Dose-limiting toxicities", "setting": "[3]; in vivo", "value": "rash"}, {"measurement": "Dose-limiting toxicities", "setting": "[3]; schedule A (bd 3/7 days) with weekly paclitaxel 80 mg/m^2", "value": "fatigue and mucositis"}, {"measurement": "Maximally tolerated dose (MTD) of vistusertib", "setting": "[3]; schedule A, bd 3/7 days for 6/7 weeks, with 80 mg/m^2 weekly paclitaxel", "value": 50, "unit": "mg"}, {"measurement": "Maximally tolerated dose (MTD) of vistusertib", "setting": "[3]; schedule B, bd 2/7 days for 6/7 weeks, with 80 mg/m^2 weekly paclitaxel", "value": 75, "unit": "mg"}, {"measurement": "Ser^473 p-AKT lower than corresponding time-point following paclitaxel alone", "setting": "[1]; 4 h, vistusertib 50 mg bd 3/7 + paclitaxel", "value": 62, "unit": "%"}, {"measurement": "Ser^473 p-AKT in PRP, % of pre-dose levels", "setting": "[1]; 4 h post-vistusertib, 50 mg bd 3/7 in addition to paclitaxel (C1D8), P = 0.0495", "value": 53, "unit": "%"}, {"measurement": "Change of p-AKT in PRP after single dose of vistusertib alone", "setting": "[1]; C1D4, 50 mg", "value": "non-significant reduction"}, {"measurement": "Patients with reduction in size of their tumour", "setting": "[4]; HGSOC expansion at RP2D", "value": 76, "unit": "%"}, {"measurement": "Patients with reduction in size of their tumour, number", "setting": "[4]; HGSOC expansion at RP2D", "value": "19 of 25"}, {"measurement": "GCIG CA125 responses, patients", "setting": "[4]; [8]", "value": "16/25"}, {"measurement": "Median progression-free survival (mPFS)", "setting": "[4]; [8]", "value": 5.8, "unit": "months"}, {"measurement": "RECIST responses (partial response), patients", "setting": "[4]; [8]", "value": "13/25"}, {"measurement": "GCIG CA125 response rate", "setting": "[4]; [9]", "value": 64, "unit": "%"}, {"measurement": "RECIST response rate", "setting": "[4]; [9]", "value": 52, "unit": "%"}, {"measurement": "RECIST response, N with PR", "setting": "[4]; OVARIAN Expansion (50 mg AZD2014/80 mg Paclitaxel), 27 patients", "value": 13, "unit": "PR"}, {"measurement": "RECIST response, N with PR", "setting": "[5]; LUNG Expansion (25 mg AZD2014/80 mg Paclitaxel), 24 patients", "value": 8}, {"measurement": "Patients with reduction in the size of their tumour", "setting": "[5]; [10]", "value": 78, "unit": "%"}, {"measurement": "Patients with reduction in the size of their tumour, number", "setting": "[5]; [10]", "value": "Eighteen of the 23"}, {"measurement": "Median progression-free survival (mPFS)", "setting": "[5]; [11]", "value": 5.8, "unit": "months"}, {"measurement": "RECIST responses (partial response), patients", "setting": "[5]; [11]", "value": "8/23"}, {"measurement": "RECIST response rate", "setting": "[5]; sqNSCLC expansion, 25 mg vistusertib bd 3/7 days + paclitaxel 80 mg/m^2, 23 patients", "value": 35, "unit": "%"}, {"measurement": "Abdominal cramps/pain, % of patients", "setting": "patients with sqNSCLC; [12]", "value": 8, "unit": "%"}, {"measurement": "Alopecia, % of patients", "setting": "patients with sqNSCLC; [12]", "value": 54, "unit": "%"}, {"measurement": "Haemoptysis, % of patients", "setting": "patients with sqNSCLC; [12]", "value": 4, "unit": "%"}, {"measurement": "Aches and pain, % of patients", "setting": "patients with sqNSCLC; [13]", "value": 12, "unit": "%"}, {"measurement": "Alopecia, % of patients", "setting": "patients with sqNSCLC; [13]", "value": 12, "unit": "%"}, {"measurement": "Tolerated dose of vistusertib in sqNSCLC", "setting": "patients with sqNSCLC; human, in vivo", "value": 25, "unit": "mg"}, {"measurement": "Partial responses in patients with sqNSCLC", "setting": "sqNSCLC", "value": "two partial responses"}, {"measurement": "AUC versus dose of vistusertib", "setting": "[6]", "value": "approximately dose proportional"}, {"measurement": "Drug-drug PK interaction on drug exposure, combination versus either agent alone", "setting": "[6]", "value": "no drug-drug PK interaction"}, {"measurement": "half-life", "setting": "[7]", "value": "short half-life"}, {"measurement": "Effect of the combination of vistusertib and paclitaxel on growth", "setting": "ovarian cancer models", "value": "additive effect"}, {"measurement": "AUC(0-t)", "setting": "clinical; 25 mg", "value": 2090, "unit": "ng·h/mL"}, {"measurement": "Cmax", "setting": "clinical; 25 mg", "value": 579, "unit": "ng/mL"}, {"measurement": "half-life", "setting": "clinical; 25 mg", "value": 3.3, "unit": "h"}, {"measurement": "AUC(0-t)", "setting": "clinical; 50 mg", "value": 2600, "unit": "ng·h/mL"}, {"measurement": "Cmax", "setting": "clinical; 50 mg", "value": 840, "unit": "ng/mL"}, {"measurement": "half-life", "setting": "clinical; 50 mg", "value": 1.8, "unit": "h"}, {"measurement": "AUC(0-t)", "setting": "clinical; 75 mg", "value": 7540, "unit": "ng·h/mL"}, {"measurement": "Cmax", "setting": "clinical; 75 mg", "value": 1840, "unit": "ng/mL"}, {"measurement": "half-life", "setting": "clinical; 75 mg", "value": 2.7, "unit": "h"}, {"measurement": "AUC(0-t)", "setting": "clinical; 100 mg", "value": 7560, "unit": "ng·h/mL"}, {"measurement": "Cmax", "setting": "clinical; 100 mg", "value": 1960, "unit": "ng/mL"}, {"measurement": "half-life", "setting": "clinical; 100 mg", "value": 3, "unit": "h"}, {"measurement": "Hyperglycaemia, all grades, % of patients", "setting": "patients", "value": 11, "unit": "%"}, {"measurement": "Hyperglycaemia, grade 3/4, % of patients", "setting": "patients", "value": 1, "unit": "%"}]}]}
